Assay results as given in ChEMBL document CHEMBL6121036, “Evaluation of Cereblon-Directing Warheads for the Development of Orally Bioavailable PROTACs” (J Med Chem, 2025).
In brackets after ≈: the same amount, converted by molar mass. Activity calls are given as the source filed them. The calls are words filed in the database; no cut-off is given here.

Legend:
[1] = Metabolic stability in mouse liver microsomes assessed as half life; format: ADME, Microsome; conditions: liver microsomes
[2] = Effect on CCND3 level in human MV4-11 cells assessed as fold change at 100 nM measured after 4 hrs; format: functional
[3] = biological target: T1, Protein cereblon/Bromodomain-containing protein 4 (Homo sapiens, UniProt O60885+Q96SW2); experiment: PROTAC activity at CRBN/Hibit-tagged BRD4 (unknown origin) expressed in HEK293 cells co-expressing LgBiT assessed as degradation of BRD4 incubated for 24 hrs by […] glo-max assay; format: cell-based
[4] = Effect on BRD4 level in human MV4-11 cells assessed as fold change at 100 nM measured after 4 hrs; format: functional
[5] = Effect on AURKA level in human MV4-11 cells assessed as fold change at 100 nM measured after 4 hrs; format: functional
[6] = biological target: Protein cereblon/Bromodomain-containing protein 3 (Homo sapiens) (UniProt Q15059+Q96SW2); experiment: PROTAC activity at CRBN/Hibit-tagged CRISPR BRD3 (unknown origin) expressed in HEK293 cells co-expressing LgBiT assessed as degradation of BRD3 by […] glo-max assay; format: cell-based
[7] = Effect on NSA2 level in human MV4-11 cells assessed as fold change at 100 nM measured after 4 hrs; format: functional
[8] = Effect on PLAU level in human MV4-11 cells assessed as fold change at 100 nM measured after 4 hrs; format: functional
[9] = Effect on CDC42EP3 level in human MV4-11 cells assessed as fold change at 100 nM measured after 4 hrs; format: functional
[10] = biological target: Protein cereblon/Bromodomain-containing protein 4/DNA damage-binding protein 1 (Homo sapiens) (UniProt O60885+Q96SW2+Q16531); experiment: Binding affinity to his-tagged CRBN/DDB1/GST-tagged BRD4 (49 to 170 residues)(unknown origin) assessed as ternary complex formation (AUC) incubated for 1 hr by luminescence based Alphascreen assay; format: protein assay
[11] = Effect on BRD2 level in human MV4-11 cells assessed as fold change at 100 nM measured after 4 hrs; format: functional
[12] = biological target: T1, Protein cereblon/Bromodomain-containing protein 4; experiment: PROTAC activity at CRBN/Hibit-tagged CRISPR BRD4 (unknown origin) expressed in HEK293 cells co-expressing LgBiT assessed as degradation of BRD4 by […] glo-max assay; format: cell-based
[13] = biological target: T1, Protein cereblon/Bromodomain-containing protein 4; experiment: PROTAC activity at CRBN/Hibit-tagged BRD4 (unknown origin) expressed in HEK293 cells co-expressing LgBiT assessed as degradation of BRD4 incubated for 24 hrs by […] glo-max assay relative to control; format: cell-based
[14] = Effect on MCL1 level in human MV4-11 cells assessed as fold change at 100 nM measured after 4 hrs; format: functional
[15] = Effect on PLK1 level in human MV4-11 cells assessed as fold change at 100 nM measured after 4 hrs; format: functional
[16] = Effect on FGL2 level in human MV4-11 cells assessed as fold change at 100 nM measured after 4 hrs; format: functional
[17] = test system: MV4-11; experiment: Cytotoxicity against human MV4-11 cells assessed as reduction in cell viability incubated for 72 hrs by cell-titer glo assay; format: functional, cell-based; conditions: MV4-11, 72 h
[18] = Effect on BRD3 level in human MV4-11 cells assessed as fold change at 100 nM measured after 4 hrs; format: functional
[19] = Stability in mouse plasma assessed as half life by UPLC-MS/MS analysis; format: ADME, cell-free
[20] = Effect on ZBTB21 level in human MV4-11 cells assessed as fold change at 100 nM measured after 4 hrs; format: functional
[21] = Effect on NOP53 level in human MV4-11 cells assessed as fold change at 100 nM measured after 4 hrs; format: functional
[22] = biological target: T1, Protein cereblon/Bromodomain-containing protein 4; experiment: PROTAC activity at CRBN/Hibit-tagged BRD4 (unknown origin) expressed in HEK293 cells co-expressing LgBiT assessed as degradation rate incubated for 24 hrs by […] glo-max assay; format: cell-based
[23] = Effect on TP53 level in human MV4-11 cells assessed as fold change at 100 nM measured after 4 hrs; format: functional
[24] = Effect on RNF166 level in human MV4-11 cells assessed as fold change at 100 nM measured after 4 hrs; format: functional
[25] = test system: HD-MB03; experiment: Cytotoxicity against human HD-MB03 cells assessed as reduction in cell viability incubated for 72 hrs by cell-titer glo assay; format: functional, cell-based; conditions: HD-MB03, 72 h
[26] = Effect on FYTTD1 level in human MV4-11 cells assessed as fold change at 100 nM measured after 4 hrs; format: functional
[27] = Effect on CCNF level in human MV4-11 cells assessed as fold change at 100 nM measured after 4 hrs; format: functional
[28] = Effect on MYC level in human MV4-11 cells assessed as fold change at 100 nM measured after 4 hrs; format: functional
[29] = biological target: T2, Protein cereblon/Bromodomain-containing protein 2 (Homo sapiens) (UniProt P25440+Q96SW2); experiment: PROTAC activity at CRBN/Hibit-tagged CRISPR BRD2 (unknown origin) expressed in HEK293 cells coexpressing LgBiT assessed as degradation of BRD2 by […] glo-max assay; format: cell-based
[30] = Kinetic aqueous solubility of the compound at pH 7.4; format: physicochemical; conditions: read-out: Kinetic_solubility
[31] = Effect on ZFP36L2 level in human MV4-11 cells assessed as fold change at 100 nM measured after 4 hrs; format: functional
[32] = biological target: T2, Protein cereblon/Bromodomain-containing protein 2 (Homo sapiens); experiment: PROTAC activity at CRBN/Hibit-tagged CRISPR BRD2 (unknown origin) expressed in HEK293 cells coexpressing LgBiT assessed as degradation of BRD2 by […] glo-max assay relative to control; format: cell-based
[33] = test system: HEK293; experiment: Cytotoxicity against HEK293 cells expressing LgBiT fused HiBiT-BRD2 measured after 24 hrs by cell titer-glo assay; format: toxicity, cell-based; conditions: human, hek293, 24 h
[34] = Permeability in MDCK-II cells incubated for 1 hr by UPLC/MS/UV analysis; format: ADME, cell-based, Canis lupus familiaris; conditions: dog, read-out: permeability

Compound | half-life [1] [h] | fold change (FC) [2] | DC50 [3] [nM] | fold change (FC) [4] | fold change (FC) [5] | fold change (FC) [7] | fold change (FC) [8] | fold change (FC) [9] | Activity [10] | fold change (FC) [11] | Emax [13] [%] | fold change (FC) [14] | fold change (FC) [15] | fold change (FC) [16] | IC50 [17] [nM] | fold change (FC) [18] | Activity [22] [fRLU/hr] | IC50 [25] [nM] | solubility kinetic [30] [µM] | Activity [33] | also measured
Cc1sc2c(c1C)C(c1ccc(Cl)cc1)=N[C@@H](CC(=O)OC(C)(C)C)c1nnc(C)n1-2 | 0.23 |  |  |  |  |  |  |  |  |  |  |  |  |  |  |  |  |  |  |  | 
Cc1sc2c(c1C)C(c1ccc(Cl)cc1)=N[C@@H](CC(=O)N1CCC(CN3CCN(c4ccc(NC5CCC(=O)NC5=O)c(F)c4)CC3)CC1)c1nnc(C)n1-2 (stereo partly drawn) | 1.86 | -0.82 | 2.31 | -3.41 | -0.77 | -1.03 | -1.06 | -1.17 | Active | -3.07 | 79.1 | -1.06 | -0.65 | -0.95 | 0.96 | -3.87 | 0.093 | 14.3 | 71.1 (≈ 55.9 µg/mL) |  | Activity [6]: Active; Less Potent Than Protac 8; Activity [12]: Active; Less Potent Than Protac 8; half-life [19]: 19.7 h; fold change (FC) [20]: -0.09; fold change (FC) [21]: -0.82; fold change (FC) [23]: 1.71; fold change (FC) [24]: -0.33; fold change (FC) [26]: -1.46; fold change (FC) [27]: -1.62; fold change (FC) [28]: -2.23; Activity [29]: Active; Less Potent Than Protac 8; fold change (FC) [31]: -0.97
Cc1sc2c(c1C)C(c1ccc(Cl)cc1)=N[C@@H](CC(=O)N1CCC(CN3CCN(c4ccc(NC5CCC(=O)NC5=O)cc4)CC3)CC1)c1nnc(C)n1-2 (stereo partly drawn) | 2.45 | -0.56 | 6.51 | -2.24 | -0.55 | -0.65 | -0.73 | -1 | Active | -1.8 | 34.9 | -0.49 | -0.56 | -1.19 | 2.92 | -2.78 | 0.036 | 31.4 | 5.7 (≈ 4.38 µg/mL) |  | Activity [32]: < 50%; half-life [19]: 12.9 h; fold change (FC) [20]: -0.14; fold change (FC) [21]: -0.49; fold change (FC) [23]: 1.12; fold change (FC) [24]: -0.29; fold change (FC) [26]: -0.84; fold change (FC) [27]: -0.38; fold change (FC) [28]: -1.77; fold change (FC) [31]: -0.75
Cc1sc2c(c1C)C(c1ccc(Cl)cc1)=N[C@@H](CC(=O)N1CCN(CC3CCN(c4ccc(C5CCC(=O)NC5=O)cc4)CC3)CC1)c1nnc(C)n1-2 (stereo partly drawn) | 2.16 |  | 0.43 |  |  |  |  |  | Active |  | 96.9 |  |  |  | 0.22 |  | 0.245 | 1.96 | 64.5 (≈ 48.6 µg/mL) | Non-toxic | 
Cc1sc2c(c1C)C(c1ccc(Cl)cc1)=N[C@@H](CC(=O)N1CCN(c3ccc(C4CCC(=O)NC4=O)cc3)CC1)c1nnc(C)n1-2 (stereo partly drawn) | 0.2 |  | > 10000 |  |  |  |  |  | Active; Lower Ternary Complex Auc Formation Observed |  | 10.6 |  |  |  | 18.6 |  | 0.005 | 250 | 17 (≈ 11.2 µg/mL) | Non-toxic | 
Cc1sc2c(c1C)C(c1ccc(Cl)cc1)=N[C@@H](CC(=O)NCCCOc1ccc(C3CCC(=O)NC3=O)cc1)c1nnc(C)n1-2 (stereo partly drawn) | 0.16 |  | 0.75 |  |  |  |  |  | Active |  | 97.3 |  |  |  | 0.23 |  | 0.264 | 3.27 | 52.8 (≈ 34.1 µg/mL) | Non-toxic | 
Cc1sc2c(c1C)C(c1ccc(Cl)cc1)=N[C@@H](CC(=O)N1CC(COc3ccc(C4CCC(=O)NC4=O)cc3)C1)c1nnc(C)n1-2 (stereo partly drawn) | 0.28 |  | 13.9 |  |  |  |  |  | Active |  | 40.4 |  |  |  | 3.1 |  | 0.07 | 38.2 | 21.3 (≈ 14 µg/mL) | Non-toxic | 
Cc1sc2c(c1C)C(c1ccc(Cl)cc1)=N[C@@H](CC(=O)N1CCN(c3cccc(C4CCC(=O)NC4=O)c3)CC1)c1nnc(C)n1-2 (stereo partly drawn) | 0.29 |  | > 10000 |  |  |  |  |  | Active; Lower Ternary Complex Auc Formation Observed |  | 12.3 |  |  |  | 6.36 |  | 0.005 | 90.7 | 21.5 (≈ 14.1 µg/mL) | Non-toxic | 
Cc1sc2c(c1C)C(c1ccc(Cl)cc1)=N[C@@H](CC(=O)N1CCC(CN3CCN(c4cc5c(cc4F)C(=O)N(C4CCC(=O)NC4=O)C5=O)CC3)CC1)c1nnc(C)n1-2 (stereo partly drawn) | 0.28 | -0.96 | 6.28 | -3.89 | -0.84 | -1.04 | -1.14 | -1.41 | Active | -3.06 | 88.6 | -1.22 | -0.75 | -1.1 | 3.23 | -3.93 | 0.143 | 84 | 73.4 (≈ 61.7 µg/mL) |  | Activity [6]: Active; Less Potent Than Protac 8; Activity [12]: Active; Less Potent Than Protac 8; half-life [19]: 13.7 h; fold change (FC) [20]: -0.02; fold change (FC) [21]: -0.81; fold change (FC) [23]: 1.82; fold change (FC) [24]: -1.01; fold change (FC) [26]: -1.52; fold change (FC) [27]: -1.86; Papp at 1 h [34]: 105 nm/s; fold change (FC) [28]: -2.29; Activity [29]: Active; Less Potent Than Protac 8; fold change (FC) [31]: -1.09
